Values quoted from earlier work in US20210137919A1, “PHARMACEUTICAL FORMULATIONS, METHOD FOR PRODUCING A PHARMACEUTICAL FORMULATION, AND MEDICAMENT COMPRISING SAME” (SmaWa GmbH, priority 2018, published 2021).

solubility in water: 2 to 3.2 µg/mL
Compound: CN1CC(=O)N2[C@H](c3ccc4c(c3)OCO4)c3[nH]c4ccccc4c3C[C@@H]2C1=O [tadalafil]
